In article doi:10.1101/2024.08.13.607785v1 (biorxiv, 2024):
Like-named read-outs stand apart in the source and are kept apart here.

Key:
Assay in all cases: biochemical
Design in all cases: species or system human cell line lysate
[1] = biological target: Casein kinase I isoform epsilon ; CSNK1E ; P49674 (Homo sapiens, UniProt P49674)
[2] = biological target: Dual specificity protein kinase CLK2 ; CLK2 ; P49760 (Homo sapiens, UniProt P49760)
[3] = biological target: Dual specificity testis-specific protein kinase 1 ; TESK1 ; Q15569 (Homo sapiens, UniProt Q15569)
[4] = biological target: T1, Ephrin type-B receptor 1 ; EPHB1 ; P54762 (Homo sapiens, UniProt P54762)
T1 sequence (P54762 1-984): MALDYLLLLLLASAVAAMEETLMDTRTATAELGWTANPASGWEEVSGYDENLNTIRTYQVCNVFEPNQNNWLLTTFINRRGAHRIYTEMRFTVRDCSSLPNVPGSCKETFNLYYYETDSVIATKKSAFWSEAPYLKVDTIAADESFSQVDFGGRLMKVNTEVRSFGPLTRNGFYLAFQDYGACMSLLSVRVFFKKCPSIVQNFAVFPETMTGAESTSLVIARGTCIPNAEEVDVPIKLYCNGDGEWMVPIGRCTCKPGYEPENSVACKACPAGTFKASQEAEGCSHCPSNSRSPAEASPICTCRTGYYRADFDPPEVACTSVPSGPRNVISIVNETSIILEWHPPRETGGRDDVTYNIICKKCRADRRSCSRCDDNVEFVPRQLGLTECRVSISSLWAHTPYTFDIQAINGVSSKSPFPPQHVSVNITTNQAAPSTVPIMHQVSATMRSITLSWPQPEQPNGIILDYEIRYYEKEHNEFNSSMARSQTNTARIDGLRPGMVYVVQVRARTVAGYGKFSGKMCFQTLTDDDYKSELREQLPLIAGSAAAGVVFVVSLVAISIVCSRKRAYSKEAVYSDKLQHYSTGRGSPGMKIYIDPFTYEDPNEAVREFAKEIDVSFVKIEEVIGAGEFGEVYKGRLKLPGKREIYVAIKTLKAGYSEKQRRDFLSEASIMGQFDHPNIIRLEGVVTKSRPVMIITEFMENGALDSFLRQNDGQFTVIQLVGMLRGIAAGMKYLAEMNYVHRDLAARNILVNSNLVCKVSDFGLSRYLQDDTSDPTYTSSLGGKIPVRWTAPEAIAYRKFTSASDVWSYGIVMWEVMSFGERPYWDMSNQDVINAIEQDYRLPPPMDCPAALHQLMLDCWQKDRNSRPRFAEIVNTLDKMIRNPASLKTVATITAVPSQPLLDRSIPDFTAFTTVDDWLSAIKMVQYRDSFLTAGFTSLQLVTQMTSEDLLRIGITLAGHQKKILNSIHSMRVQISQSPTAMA

[5] = biological target: Inositol polyphosphate multikinase ; IPMK ; Q8NFU5 (Homo sapiens, UniProt Q8NFU5)
[6] = biological target: Isoform 2 of 5'-AMP-activated protein kinase catalytic subunit alpha-1 ; PRKAA1 ; Q13131-2 (Homo sapiens, UniProt Q13131)
[7] = biological target: Isoform 2 of Ribosomal protein S6 kinase alpha-1 ; RPS6KA1 ; Q15418-2 (Homo sapiens, UniProt Q15418)
[8] = biological target: Isoform 3 of Casein kinase I isoform alpha ; CSNK1A1 ; P48729-3 (Homo sapiens, UniProt P48729)
[9] = biological target: Mitogen-activated protein kinase kinase kinase 9 ; MAP3K9 ; P80192 (Homo sapiens, UniProt P80192)
[10] = biological target: Phosphatidylinositol 4-phosphate 3-kinase C2 domain-containing subunit ; PIK3C2B ; O00750 (Homo sapiens, UniProt O00750)
[11] = biological target: RAC-alpha serine/threonine-protein kinase ; AKT1 ; P31749 (Homo sapiens, UniProt P31749)
[12] = biological target: Serine-protein kinase ATM ; ATM ; Q13315 (Homo sapiens, UniProt Q13315)
[13] = biological target: Serine/threonine-protein kinase 4 ; STK4 ; Q13043 (Homo sapiens, UniProt Q13043)
[14] = biological target: Serine/threonine-protein kinase Chk2 ; CHEK2 ; O96017 (Homo sapiens, UniProt O96017)
[15] = biological target: Tyrosine-protein kinase CSK ; CSK ; P41240 (Homo sapiens, UniProt P41240)
[16] = biological target: Tyrosine-protein kinase Fer ; FER ; P16591 (Homo sapiens, UniProt P16591)
[17] = read-out: BAY-1143572 (10 µM) / %Intensity relative to DMSO
[18] = read-out: BAY-1251152 (10 µM) / %Intensity relative to DMSO

Casein kinase I isoform epsilon ; CSNK1E ; P49674, sequence (P49674 whole entry, canonical isoform): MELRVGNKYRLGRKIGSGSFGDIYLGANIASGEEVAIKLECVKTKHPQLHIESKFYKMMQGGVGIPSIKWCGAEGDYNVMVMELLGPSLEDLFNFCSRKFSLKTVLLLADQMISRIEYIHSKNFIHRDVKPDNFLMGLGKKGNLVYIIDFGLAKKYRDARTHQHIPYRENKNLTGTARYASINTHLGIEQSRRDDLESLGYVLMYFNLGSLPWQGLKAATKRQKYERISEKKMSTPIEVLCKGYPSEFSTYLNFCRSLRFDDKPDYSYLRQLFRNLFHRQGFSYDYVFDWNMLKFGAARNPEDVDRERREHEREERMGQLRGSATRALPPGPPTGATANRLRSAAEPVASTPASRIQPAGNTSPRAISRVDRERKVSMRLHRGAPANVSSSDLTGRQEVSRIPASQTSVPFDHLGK
Dual specificity protein kinase CLK2 ; CLK2 ; P49760, sequence (P49760 whole entry): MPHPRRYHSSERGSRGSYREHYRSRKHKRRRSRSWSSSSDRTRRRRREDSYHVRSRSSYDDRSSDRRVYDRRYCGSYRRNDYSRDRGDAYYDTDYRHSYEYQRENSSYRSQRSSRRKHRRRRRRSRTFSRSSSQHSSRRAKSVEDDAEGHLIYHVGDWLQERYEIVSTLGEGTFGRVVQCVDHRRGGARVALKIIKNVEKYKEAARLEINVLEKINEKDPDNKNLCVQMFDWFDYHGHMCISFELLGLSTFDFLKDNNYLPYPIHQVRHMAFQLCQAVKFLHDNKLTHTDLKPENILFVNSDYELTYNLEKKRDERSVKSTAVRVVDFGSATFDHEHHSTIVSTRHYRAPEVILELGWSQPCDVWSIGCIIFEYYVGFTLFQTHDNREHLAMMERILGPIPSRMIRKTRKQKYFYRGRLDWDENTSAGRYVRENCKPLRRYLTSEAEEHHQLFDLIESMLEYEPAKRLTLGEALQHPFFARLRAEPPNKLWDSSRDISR
Serine/threonine-protein kinase Chk2 ; CHEK2 ; O96017, sequence (O96017 whole entry, one chain of several): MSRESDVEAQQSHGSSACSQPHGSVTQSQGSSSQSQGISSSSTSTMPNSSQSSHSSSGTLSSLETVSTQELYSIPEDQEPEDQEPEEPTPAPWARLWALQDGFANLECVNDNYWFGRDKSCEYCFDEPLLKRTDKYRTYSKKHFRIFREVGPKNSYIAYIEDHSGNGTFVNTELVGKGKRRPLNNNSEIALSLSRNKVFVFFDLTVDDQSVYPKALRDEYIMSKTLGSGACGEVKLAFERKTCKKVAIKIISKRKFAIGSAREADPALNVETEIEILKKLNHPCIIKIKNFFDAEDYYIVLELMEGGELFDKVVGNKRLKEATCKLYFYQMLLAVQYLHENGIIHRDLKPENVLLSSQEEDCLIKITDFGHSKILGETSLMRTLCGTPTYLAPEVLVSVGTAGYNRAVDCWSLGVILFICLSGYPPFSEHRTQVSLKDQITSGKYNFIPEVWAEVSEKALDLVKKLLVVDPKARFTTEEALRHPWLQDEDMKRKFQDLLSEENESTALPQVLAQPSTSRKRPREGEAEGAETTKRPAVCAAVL
Isoform 3 of Casein kinase I isoform alpha ; CSNK1A1 ; P48729-3, sequence (P48729 whole entry, canonical isoform): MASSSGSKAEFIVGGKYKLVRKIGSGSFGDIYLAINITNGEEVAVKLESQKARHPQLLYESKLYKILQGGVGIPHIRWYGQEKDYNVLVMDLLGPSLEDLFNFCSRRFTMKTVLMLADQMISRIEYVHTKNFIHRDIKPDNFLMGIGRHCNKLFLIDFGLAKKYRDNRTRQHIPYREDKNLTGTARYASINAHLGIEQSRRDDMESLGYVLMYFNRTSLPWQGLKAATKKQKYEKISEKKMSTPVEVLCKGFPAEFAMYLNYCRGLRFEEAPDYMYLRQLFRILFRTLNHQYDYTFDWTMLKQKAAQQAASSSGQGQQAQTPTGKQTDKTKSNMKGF
Isoform 2 of 5'-AMP-activated protein kinase catalytic subunit alpha-1 ; PRKAA1 ; Q13131-2, sequence (Q13131 whole entry, canonical isoform, one chain of several): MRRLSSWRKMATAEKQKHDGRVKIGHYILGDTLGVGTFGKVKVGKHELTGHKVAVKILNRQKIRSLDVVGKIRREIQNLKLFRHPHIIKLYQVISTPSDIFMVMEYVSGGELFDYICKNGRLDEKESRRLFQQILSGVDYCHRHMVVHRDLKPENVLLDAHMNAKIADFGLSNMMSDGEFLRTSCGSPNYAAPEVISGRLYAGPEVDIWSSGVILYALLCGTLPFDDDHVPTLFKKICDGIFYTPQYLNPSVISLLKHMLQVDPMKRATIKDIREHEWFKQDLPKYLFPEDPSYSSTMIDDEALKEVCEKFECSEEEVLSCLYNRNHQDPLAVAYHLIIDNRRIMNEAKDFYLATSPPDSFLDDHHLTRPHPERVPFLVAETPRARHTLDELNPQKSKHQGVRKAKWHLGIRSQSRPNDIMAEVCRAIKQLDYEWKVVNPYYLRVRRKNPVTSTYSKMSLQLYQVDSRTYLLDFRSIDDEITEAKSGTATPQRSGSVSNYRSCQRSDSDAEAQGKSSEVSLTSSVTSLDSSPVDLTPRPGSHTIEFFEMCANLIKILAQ
Phosphatidylinositol 4-phosphate 3-kinase C2 domain-containing subunit ; PIK3C2B ; O00750, sequence (O00750 whole entry, the tested form may be a part, one chain of several): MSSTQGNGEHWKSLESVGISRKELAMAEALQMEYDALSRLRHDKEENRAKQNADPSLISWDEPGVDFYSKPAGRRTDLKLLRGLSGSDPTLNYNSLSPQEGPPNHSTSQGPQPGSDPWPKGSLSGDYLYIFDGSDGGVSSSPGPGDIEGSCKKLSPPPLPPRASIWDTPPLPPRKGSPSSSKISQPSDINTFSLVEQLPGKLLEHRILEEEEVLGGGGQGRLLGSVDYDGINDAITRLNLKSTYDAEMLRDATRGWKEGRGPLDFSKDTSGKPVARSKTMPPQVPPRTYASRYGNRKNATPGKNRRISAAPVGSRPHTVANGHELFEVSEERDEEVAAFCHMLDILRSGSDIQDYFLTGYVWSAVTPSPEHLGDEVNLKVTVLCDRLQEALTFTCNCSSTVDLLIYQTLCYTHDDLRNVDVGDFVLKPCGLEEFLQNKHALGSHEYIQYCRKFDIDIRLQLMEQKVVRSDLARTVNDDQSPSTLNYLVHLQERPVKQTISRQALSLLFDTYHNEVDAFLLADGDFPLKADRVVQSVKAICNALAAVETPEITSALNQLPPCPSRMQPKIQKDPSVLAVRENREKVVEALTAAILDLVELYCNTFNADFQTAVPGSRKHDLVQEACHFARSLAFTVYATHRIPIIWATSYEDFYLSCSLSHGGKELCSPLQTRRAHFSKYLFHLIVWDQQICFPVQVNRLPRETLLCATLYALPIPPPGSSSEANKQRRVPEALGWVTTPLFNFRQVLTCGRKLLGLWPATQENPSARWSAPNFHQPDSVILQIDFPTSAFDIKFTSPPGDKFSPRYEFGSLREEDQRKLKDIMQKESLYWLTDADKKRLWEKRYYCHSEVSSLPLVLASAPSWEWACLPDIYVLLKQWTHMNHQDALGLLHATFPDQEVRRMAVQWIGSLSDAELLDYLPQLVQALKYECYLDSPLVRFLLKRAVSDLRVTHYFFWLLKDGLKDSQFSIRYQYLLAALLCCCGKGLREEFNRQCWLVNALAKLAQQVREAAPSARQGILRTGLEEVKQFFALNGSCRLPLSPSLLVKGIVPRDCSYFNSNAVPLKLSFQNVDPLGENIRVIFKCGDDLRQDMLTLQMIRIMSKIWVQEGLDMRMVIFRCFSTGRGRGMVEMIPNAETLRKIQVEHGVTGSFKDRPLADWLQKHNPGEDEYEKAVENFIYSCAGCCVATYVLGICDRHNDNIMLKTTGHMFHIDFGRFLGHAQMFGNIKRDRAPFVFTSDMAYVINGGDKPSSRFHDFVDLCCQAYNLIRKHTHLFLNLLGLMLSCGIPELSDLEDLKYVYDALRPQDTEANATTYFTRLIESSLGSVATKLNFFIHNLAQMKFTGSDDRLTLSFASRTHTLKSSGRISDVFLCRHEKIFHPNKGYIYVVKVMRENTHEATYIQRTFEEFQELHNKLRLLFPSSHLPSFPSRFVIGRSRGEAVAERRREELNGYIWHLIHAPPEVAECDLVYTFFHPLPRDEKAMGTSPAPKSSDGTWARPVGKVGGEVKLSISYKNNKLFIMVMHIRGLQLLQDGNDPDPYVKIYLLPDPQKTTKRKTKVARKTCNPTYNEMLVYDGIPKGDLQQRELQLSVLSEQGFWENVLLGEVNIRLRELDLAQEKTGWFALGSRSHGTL
Inositol polyphosphate multikinase ; IPMK ; Q8NFU5, sequence (Q8NFU5 whole entry, canonical isoform): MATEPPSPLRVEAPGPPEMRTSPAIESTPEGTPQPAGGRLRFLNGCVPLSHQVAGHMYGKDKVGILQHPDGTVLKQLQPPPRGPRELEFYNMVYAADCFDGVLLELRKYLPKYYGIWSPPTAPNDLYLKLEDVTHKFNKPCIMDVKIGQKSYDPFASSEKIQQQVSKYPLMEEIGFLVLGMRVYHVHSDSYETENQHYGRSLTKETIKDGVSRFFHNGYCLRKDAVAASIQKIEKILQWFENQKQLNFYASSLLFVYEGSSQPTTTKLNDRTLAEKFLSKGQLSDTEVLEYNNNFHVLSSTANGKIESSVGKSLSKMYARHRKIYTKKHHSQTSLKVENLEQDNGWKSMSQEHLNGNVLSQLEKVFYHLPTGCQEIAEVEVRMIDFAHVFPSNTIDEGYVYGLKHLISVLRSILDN
RAC-alpha serine/threonine-protein kinase ; AKT1 ; P31749, sequence (P31749 whole entry, one chain of several): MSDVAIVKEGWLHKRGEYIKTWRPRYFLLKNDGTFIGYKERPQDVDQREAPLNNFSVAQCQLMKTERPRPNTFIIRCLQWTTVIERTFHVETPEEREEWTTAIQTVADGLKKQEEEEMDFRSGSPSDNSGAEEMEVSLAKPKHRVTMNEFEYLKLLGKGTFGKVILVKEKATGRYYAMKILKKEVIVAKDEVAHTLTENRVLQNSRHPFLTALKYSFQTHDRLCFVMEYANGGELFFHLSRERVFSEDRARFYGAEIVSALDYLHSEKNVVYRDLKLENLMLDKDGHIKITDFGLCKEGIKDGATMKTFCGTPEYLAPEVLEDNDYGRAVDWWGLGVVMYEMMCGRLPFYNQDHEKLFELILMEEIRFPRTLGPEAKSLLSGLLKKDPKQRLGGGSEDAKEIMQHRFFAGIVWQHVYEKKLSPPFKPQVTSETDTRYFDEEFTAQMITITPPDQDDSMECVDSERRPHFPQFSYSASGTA

Work on `COc1cc(F)ccc1-c1ncnc(Nc2cccc(C[S@](C)(=N)=O)c2)n1` [BAY-1143572] yielded a remaining activity at 10 µM [1, 17] of 111%, a remaining activity at 10 µM [2, 17] of 139% and a remaining activity at 10 µM [3, 17] of 109%. The remaining activity at 10 µM [4, 17] was 91.7%, the remaining activity at 10 µM [5, 17] was 107% and the remaining activity at 10 µM [6, 17] was 99.5%. For the same compound, the remaining activity at 10 µM [7, 17] was 116%, the remaining activity at 10 µM [8, 17] was 115% and the remaining activity at 10 µM [9, 17] was 87.2%. The remaining activity at 10 µM [10, 17] was 79.7%, the remaining activity at 10 µM [11, 17] was 128% and the remaining activity at 10 µM [12, 17] was 110%. For the same compound, the remaining activity at 10 µM [13, 17] was 108%, the remaining activity at 10 µM [14, 17] was 116% and the remaining activity at 10 µM [15, 17] was 112%. For the same compound, the remaining activity at 10 µM [16, 17] was 112%.

`COc1cc(F)ccc1-c1cc(Nc2cc(CS(C)(=N)=O)ccn2)ncc1F` (centres unmarked) [BAY-1251152] showed a remaining activity at 10 µM [1, 18] of 101%, a remaining activity at 10 µM [2, 18] of 112% and a remaining activity at 10 µM [3, 18] of 104%. It also gave a remaining activity at 10 µM [4, 18] of 108%, a remaining activity at 10 µM [5, 18] of 96.1% and a remaining activity at 10 µM [6, 18] of 103%. For the same compound, the remaining activity at 10 µM [7, 18] was 108%, the remaining activity at 10 µM [8, 18] was 111% and the remaining activity at 10 µM [9, 18] was 104%. For the same compound, the remaining activity at 10 µM [10, 18] was 84.6%, the remaining activity at 10 µM [11, 18] was 125% and the remaining activity at 10 µM [12, 18] was 115%. It also gave a remaining activity at 10 µM [13, 18] of 94.2%, a remaining activity at 10 µM [14, 18] of 106% and a remaining activity at 10 µM [15, 18] of 106%. For the same compound, the remaining activity at 10 µM [16, 18] was 103%.
